Source: patent publication US9044480B1, “Compositions and methods for treating HCV” (priority 2011, dated 2015)
Where two headings read alike, the source gives them in different places.

Tests used:
GT 1a replicon D168V = experiment: HCV subgenomic replicon system, GT 1a D168V; assay type: cell-based
Method: (§1) Phenotypic analyses of clinical samples were also performed. For replicon transient transfection assays, RNA was transcribed from linearized plasmid DNA using a TranscriptAid T7 transcription kit (Fermentas) and 15 μg RNA was electroporated into Huh7-derived cells. For EC50 determinations, various concentrations of Compound I were added to cells 1-2 hr after plating and the cells were cultured for 4 days, followed by measurement of luciferase activity with a luciferase assay system kit (Promega).

[1] = test system: NS3 protease domain from GT 1b HCV-infected subjects in replicon shuttle vector; experiment: Replicon transient transfection EC50, NS3 protease domain from subjects cloned into shuttle vector, GT 1b; assay type: cell-based; conditions: for EC50: Hepatitis C virus, GT1B
Text: (§2) Viral RNA was isolated from the plasma of HCV-infected patients at baseline (Day 1) and Day 4 by using an automated (Abbott m2000) or manual (QIAgen QIAamp Viral RNA Mini Kit) method. Amplicons containing the NS3-4A region were generated by RT-PCR, and PCR fragments containing the first 250 amino acids of NS3 were generated in a second round of PCR. The NS3 domain fragment was subsequently cloned into pJET (Fermentas) vector for clonal sequencing or digested with restriction enzymes and cloned into the replicon shuttle vector for phenotypic analysis. The lower limit of detection of the RT-PCR amplification method restricted the analysis to patient samples with HCV RNA levels above ˜500-1000 IU/mL.
as §1

GT 1a replicon WT = experiment: HCV subgenomic replicon system, GT 1a WT; assay type: cell-based; conditions: Hepatitis C virus, GT1A
Method: as §1

GT 1b replicon D168V = experiment: HCV subgenomic replicon system, GT 1b D168V; assay type: cell-based
Method: as §1

GT 1b replicon WT = experiment: HCV subgenomic replicon system, GT 1b WT; assay type: cell-based; conditions: Hepatitis C virus, GT1B
Method: as §1

[2] = test system: NS3 protease domain from GT 1a HCV-infected subjects in replicon shuttle vector; experiment: Replicon transient transfection EC50, NS3 protease domain from subjects cloned into shuttle vector, GT 1a; assay type: cell-based; conditions: for Fold Change: GT 1a; for EC50: Hepatitis C virus, GT1A
Text: as §2
Phenotypic analyses of clinical samples were also performed. For replicon transient transfection assays, RNA was transcribed from linearized plasmid DNA using a TranscriptAid T7 transcription kit (Fermentas) and 15 μg RNA was electroporated into Huh7-derived cells. […]

Aqueous solubility = assay type: physicochemical
GT 1a replicon R155K = experiment: HCV subgenomic replicon system, GT 1a R155K; assay type: cell-based
Method: as §1

GT 1a replicon D168A = experiment: HCV subgenomic replicon system, GT 1a D168A; assay type: cell-based
Method: as §1

GT 1a replicon R155G = experiment: HCV subgenomic replicon system, GT 1a R155G; assay type: cell-based
Method: as §1

Cc1cnc(C(=O)N[C@H]2CCCCC/C=C\[C@@H]3C[C@@]3(C(=O)NS(=O)(=O)C3CC3)NC(=O)[C@@H]3C[C@@H](Oc4nc5ccccc5c5ccccc45)CN3C2=O)cn1 [Compound I, (2R,6S,13aS,14aR,16aS,Z)—N-(cyclopropylsulfonyl)-6-(5-methylpyrazine-2-carboxamido)-5,16-dioxo-2-(phenanthridin-6-yloxy)-1,2,3,5,6,7,8,9,10,11,13a,14,14a,15,16,16a-hexadecahydrocyclopropa[e]pyrrolo[1,2-a][1,4]diazacyclopentadecine-14a-carboxamide]
Fold Change (GT 1a replicon D168V; EC50 of GT 1a D168V vs GT 1a WT): 115 | EC50 (GT 1a replicon D168V; Hepatitis C virus, GT1A): 136 nM | EC50 ([1]; 24 h, read-out: EC50 Day 1, Subject F, GT 1b, 200/100 mg dose group, Day 1 (baseline) sample): 0.04 nM | EC50 ([1]; 24 h, read-out: EC50 Day 1, Subject J, GT 1b, 100/100 mg dose group, Day 1 (baseline) sample): 0.04 nM | EC50 ([1]; 24 h, read-out: EC50 Day 1, Subject K, GT 1b, 100/100 mg dose group, Day 1 (baseline) sample): 0.07 nM | EC50 ([1]; 24 h, read-out: EC50 Day 1, Subject O, GT 1b, 100/100 mg dose group, Day 1 (baseline) sample): 0.05 nM | EC50 ([1]; 24 h, read-out: EC50 Day 1, Subject S, GT 1b, 50/100 mg dose group, Day 1 (baseline) sample): 0.06 nM | EC50 ([1]; 96 h, read-out: EC50 Day 4, Subject J, GT 1b, 100/100 mg dose group, Day 4 sample): 15.5 nM | EC50 shift at day 4 relative to baseline ([1]; single GT 1b subject (J), 100/100 mg dose group): 368 fold | EC50 (GT 1a replicon WT): 1.19 nM | Fold Change (GT 1b replicon D168V; EC50 of GT 1b D168V vs GT 1b WT): 257 | EC50 (GT 1b replicon D168V; Hepatitis C virus, GT1B): 17.5 nM | EC50 (GT 1b replicon WT): 0.07 nM | Fold Change ([2]; EC50 Day 4 vs Day 1, Subject A, 200/100 mg dose group): 0.9 | Fold Change ([2]; EC50 Day 4 vs Day 1, Subject B, 200/100 mg dose group): 0.8 | Fold Change ([2]; EC50 Day 4 vs Day 1, Subject C, 200/100 mg dose group): 1.0 | Fold Change ([2]; EC50 Day 4 vs Day 1, Subject D, 200/100 mg dose group): 1.1 | Fold Change ([2]; EC50 Day 4 vs Day 1, Subject N, 100/100 mg dose group): 1.1 | Fold Change ([2]; EC50 Day 4 vs Day 1, Subject V, 50/100 mg dose group): 1.7 | EC50 ([2]; 24 h, read-out: EC50 Day 1, Subject A, GT 1a, 200/100 mg dose group, Day 1 (baseline) sample): 1.31 nM | EC50 ([2]; 24 h, read-out: EC50 Day 1, Subject B, GT 1a, 200/100 mg dose group, Day 1 (baseline) sample): 1.36 nM | EC50 ([2]; 24 h, read-out: EC50 Day 1, Subject C, GT 1a, 200/100 mg dose group, Day 1 (baseline) sample): 3.11 nM | EC50 ([2]; 24 h, read-out: EC50 Day 1, Subject D, GT 1a, 200/100 mg dose group, Day 1 (baseline) sample): 2.42 nM | EC50 ([2]; 24 h, read-out: EC50 Day 1, Subject E, GT 1a, 200/100 mg dose group, Day 1 (baseline) sample): 0.58 nM | EC50 ([2]; 24 h, read-out: EC50 Day 1, Subject G, GT 1a, 200/100 mg dose group, Day 1 (baseline) sample): 2.68 nM | EC50 ([2]; 24 h, read-out: EC50 Day 1, Subject H, GT 1a, 100/100 mg dose group, Day 1 (baseline) sample): 1.55 nM | EC50 ([2]; 24 h, read-out: EC50 Day 1, Subject I, GT 1a, 100/100 mg dose group, Day 1 (baseline) sample): 1.43 nM | EC50 ([2]; 24 h, read-out: EC50 Day 1, Subject L, GT 1a, 100/100 mg dose group, Day 1 (baseline) sample): 2.8 nM | EC50 ([2]; 24 h, read-out: EC50 Day 1, Subject M, GT 1a, 100/100 mg dose group, Day 1 (baseline) sample): 0.91 nM | EC50 ([2]; 24 h, read-out: EC50 Day 1, Subject N, GT 1a, 100/100 mg dose group, Day 1 (baseline) sample): 0.58 nM | EC50 ([2]; 24 h, read-out: EC50 Day 1, Subject P, GT 1a, 50/100 mg dose group, Day 1 (baseline) sample): 0.81 nM | EC50 ([2]; 24 h, read-out: EC50 Day 1, Subject Q, GT 1a, 50/100 mg dose group, Day 1 (baseline) sample): 0.68 nM | EC50 ([2]; 24 h, read-out: EC50 Day 1, Subject R, GT 1a, 50/100 mg dose group, Day 1 (baseline) sample): 5.97 nM | EC50 ([2]; 24 h, read-out: EC50 Day 1, Subject T, GT 1a, 50/100 mg dose group, Day 1 (baseline) sample): 0.45 nM | EC50 ([2]; 24 h, read-out: EC50 Day 1, Subject U, GT 1a, 50/100 mg dose group, Day 1 (baseline) sample): 1.52 nM | EC50 ([2]; 24 h, read-out: EC50 Day 1, Subject V, GT 1a, 50/100 mg dose group, Day 1 (baseline) sample): 1.01 nM | EC50 ([2]; 24 h, read-out: EC50 Day 1, Subject W, GT 1a, 50/100 mg dose group, Day 1 (baseline) sample): 1.54 nM | EC50 ([2]; 96 h, read-out: EC50 Day 4, Subject A, GT 1a, 200/100 mg dose group, Day 4 sample): 1.14 nM | EC50 ([2]; 96 h, read-out: EC50 Day 4, Subject B, GT 1a, 200/100 mg dose group, Day 4 sample): 1.06 nM | EC50 ([2]; 96 h, read-out: EC50 Day 4, Subject C, GT 1a, 200/100 mg dose group, Day 4 sample): 3.23 nM | EC50 ([2]; 96 h, read-out: EC50 Day 4, Subject D, GT 1a, 200/100 mg dose group, Day 4 sample): 2.57 nM | EC50 ([2]; 96 h, read-out: EC50 Day 4, Subject H, GT 1a, 100/100 mg dose group, Day 4 sample): 10.2 nM | EC50 ([2]; 96 h, read-out: EC50 Day 4, Subject L, GT 1a, 100/100 mg dose group, Day 4 sample): 8.84 nM | EC50 ([2]; 96 h, read-out: EC50 Day 4, Subject N, GT 1a, 100/100 mg dose group, Day 4 sample): 0.64 nM | EC50 ([2]; 96 h, read-out: EC50 Day 4, Subject P, GT 1a, 50/100 mg dose group, Day 4 sample): 8.88 nM | EC50 ([2]; 96 h, read-out: EC50 Day 4, Subject R, GT 1a, 50/100 mg dose group, Day 4 sample): 68.7 nM | EC50 ([2]; 96 h, read-out: EC50 Day 4, Subject U, GT 1a, 50/100 mg dose group, Day 4 sample): 11.5 nM | EC50 ([2]; 96 h, read-out: EC50 Day 4, Subject V, GT 1a, 50/100 mg dose group, Day 4 sample): 1.69 nM | EC50 ([2]; 96 h, read-out: EC50 Day 4, Subject W, GT 1a, 50/100 mg dose group, Day 4 sample): 9.78 nM | Subjects with increased EC50 values at day 4 relative to baseline ([2]; subjects with Day 4 samples amplified, includes GT 1b subject J): 7 of the 13 | Aqueous solubility (Aqueous solubility): low aqueous solubility | Fold Change (GT 1a replicon R155K; EC50 of GT 1a R155K vs GT 1a WT): 43 | EC50 (GT 1a replicon R155K; Hepatitis C virus, GT1A): 51.5 nM | Fold Change (GT 1a replicon D168A; EC50 of GT 1a D168A vs GT 1a WT): 59 | EC50 (GT 1a replicon D168A; Hepatitis C virus, GT1A): 70.4 nM | Fold Change (GT 1a replicon R155G; EC50 of GT 1a R155G vs GT 1a WT): 16 | EC50 (GT 1a replicon R155G; Hepatitis C virus, GT1A): 19.2 nM
